Reference: ChEMBL document CHEMBL2016457, “Discovery of potent and orally bioavailable 17β-hydroxysteroid dehydrogenase type 3 inhibitors” (Bioorg Med Chem, 2012)
Active and inactive are the calls of the source. How the calls were made is not given here.

Tests used:
[1] = target: T1, Glucocorticoid receptor (Homo sapiens) (UniProt P04150); test: Agonist activity at human Glucocorticoid receptor expressed in human HeLa cells assessed as DHT-induced response after 40 hrs by luciferase/beta-galactosidase-based reporter gene assay; type: functional, cell-based
T1 sequence (whole entry): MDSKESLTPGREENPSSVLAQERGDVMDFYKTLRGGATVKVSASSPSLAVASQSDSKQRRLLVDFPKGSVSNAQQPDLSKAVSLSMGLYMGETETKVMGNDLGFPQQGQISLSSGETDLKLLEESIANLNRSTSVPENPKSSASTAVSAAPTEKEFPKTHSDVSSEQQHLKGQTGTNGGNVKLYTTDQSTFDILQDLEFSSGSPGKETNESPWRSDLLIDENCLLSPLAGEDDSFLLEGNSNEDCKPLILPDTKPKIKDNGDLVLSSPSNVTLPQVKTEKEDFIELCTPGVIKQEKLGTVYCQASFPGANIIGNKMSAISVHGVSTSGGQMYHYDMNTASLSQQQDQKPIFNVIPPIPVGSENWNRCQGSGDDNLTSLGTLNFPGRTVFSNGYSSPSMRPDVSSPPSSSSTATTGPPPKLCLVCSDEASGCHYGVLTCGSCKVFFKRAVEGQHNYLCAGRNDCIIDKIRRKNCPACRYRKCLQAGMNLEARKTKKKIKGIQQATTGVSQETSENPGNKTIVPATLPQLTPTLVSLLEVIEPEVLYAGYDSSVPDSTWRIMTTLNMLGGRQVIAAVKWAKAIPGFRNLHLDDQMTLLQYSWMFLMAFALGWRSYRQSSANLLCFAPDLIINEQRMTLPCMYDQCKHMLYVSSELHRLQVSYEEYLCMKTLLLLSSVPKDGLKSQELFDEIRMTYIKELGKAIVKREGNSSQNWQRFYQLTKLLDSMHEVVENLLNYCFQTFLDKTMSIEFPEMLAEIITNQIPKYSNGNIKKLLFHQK

[2] = target: T2, 17-beta-hydroxysteroid dehydrogenase type 2 (Homo sapiens) (UniProt P37059); test: Inhibition of human recombinant 17-beta-HSD2 expressed in human HeLa cells using estradiol as substrate preincubated for 30 mins prior substrate addition measured after 120 mins by spectrophotometry; type: cell-based
T2 sequence (whole entry): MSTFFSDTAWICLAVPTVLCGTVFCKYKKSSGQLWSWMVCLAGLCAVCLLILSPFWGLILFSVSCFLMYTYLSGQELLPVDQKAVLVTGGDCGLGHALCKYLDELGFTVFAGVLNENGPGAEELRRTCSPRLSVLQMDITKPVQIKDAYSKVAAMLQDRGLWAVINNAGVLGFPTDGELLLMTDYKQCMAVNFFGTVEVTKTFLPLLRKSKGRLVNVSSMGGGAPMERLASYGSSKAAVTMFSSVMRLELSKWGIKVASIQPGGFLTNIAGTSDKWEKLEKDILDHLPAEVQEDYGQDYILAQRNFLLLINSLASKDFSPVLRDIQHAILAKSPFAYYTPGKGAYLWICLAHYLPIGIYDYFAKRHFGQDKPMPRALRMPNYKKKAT

[3] = target: T3, Androgen receptor (Homo sapiens) (UniProt P10275); test: Antagonist activity at human androgen receptor expressed in human HeLa cells assessed as inhibition of DHT-induced response after 40 hrs by luciferase/beta-galactosidase-based reporter gene assay; type: functional, cell-based
T3 sequence (whole entry): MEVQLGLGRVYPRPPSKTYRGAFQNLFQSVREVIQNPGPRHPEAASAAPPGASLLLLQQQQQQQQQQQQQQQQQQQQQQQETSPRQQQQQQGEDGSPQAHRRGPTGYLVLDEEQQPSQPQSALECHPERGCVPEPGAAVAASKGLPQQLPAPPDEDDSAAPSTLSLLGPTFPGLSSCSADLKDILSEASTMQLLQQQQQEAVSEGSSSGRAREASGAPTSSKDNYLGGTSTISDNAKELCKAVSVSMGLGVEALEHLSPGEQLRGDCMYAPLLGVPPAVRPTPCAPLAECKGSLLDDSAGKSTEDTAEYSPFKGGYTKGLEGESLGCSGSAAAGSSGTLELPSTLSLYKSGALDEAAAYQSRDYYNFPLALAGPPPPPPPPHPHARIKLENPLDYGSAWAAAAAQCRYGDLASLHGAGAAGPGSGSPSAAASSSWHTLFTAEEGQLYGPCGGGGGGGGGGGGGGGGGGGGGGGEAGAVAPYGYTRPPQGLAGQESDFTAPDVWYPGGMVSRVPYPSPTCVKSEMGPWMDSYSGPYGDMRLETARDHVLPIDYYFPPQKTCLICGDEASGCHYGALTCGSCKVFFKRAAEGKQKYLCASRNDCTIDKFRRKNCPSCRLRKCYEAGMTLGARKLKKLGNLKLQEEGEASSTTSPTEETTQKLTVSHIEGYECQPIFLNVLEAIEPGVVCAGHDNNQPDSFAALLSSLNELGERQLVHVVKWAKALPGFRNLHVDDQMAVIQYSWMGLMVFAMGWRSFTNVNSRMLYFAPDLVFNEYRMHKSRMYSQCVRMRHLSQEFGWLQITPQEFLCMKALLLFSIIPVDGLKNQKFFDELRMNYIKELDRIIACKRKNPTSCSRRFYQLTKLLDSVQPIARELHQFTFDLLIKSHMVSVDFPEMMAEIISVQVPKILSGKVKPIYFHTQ

[4] = target: T1, Glucocorticoid receptor (Homo sapiens); test: Antagonist activity at human GR receptor expressed in human HeLa cells assessed as inhibition of DHT-induced response after 40 hrs by luciferase/beta-galactosidase-based reporter gene assay; type: functional, cell-based
[5] = target: T4, 17-beta-hydroxysteroid dehydrogenase type 1 (Homo sapiens) (UniProt P14061); test: Inhibition of human recombinant 17-beta-HSD1 expressed in human HeLa cells using estrone as substrate preincubated for 30 mins prior substrate addition measured after 120 mins by spectrophotometry; type: cell-based
T4 sequence (whole entry): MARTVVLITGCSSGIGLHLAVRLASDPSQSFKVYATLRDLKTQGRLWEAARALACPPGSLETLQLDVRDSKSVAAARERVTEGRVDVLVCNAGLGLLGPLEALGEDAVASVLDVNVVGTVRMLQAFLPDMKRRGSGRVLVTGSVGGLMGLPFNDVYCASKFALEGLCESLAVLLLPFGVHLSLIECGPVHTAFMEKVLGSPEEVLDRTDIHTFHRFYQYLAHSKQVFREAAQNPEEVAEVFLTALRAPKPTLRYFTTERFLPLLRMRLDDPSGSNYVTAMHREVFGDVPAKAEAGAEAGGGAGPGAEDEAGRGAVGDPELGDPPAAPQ

Row | Activity [1] | inhibition [2] | Activity [3] | Activity [4] | inhibition [5] | SMILES
1 | inactive | inactive | inactive | inactive | inactive | COc1ccc(N2C(=O)/C(=C/c3cc(Cl)c(OP(=O)(O)O)c(Cl)c3)OC2=S)cc1
2 | inactive | inactive | inactive | inactive | inactive | COc1ccc(N2C(=O)/C(=C/c3cc(Cl)c(O)c(Cl)c3)OC2=S)cc1
